Reference: ChEMBL document CHEMBL3352455, “Small molecule disruptors of the glucokinase-glucokinase regulatory protein interaction: 4. Exploration of a novel binding pocket” (J Med Chem, 2014)

Legend:
[1] = Intrinsic clearance in rat liver microsomes at 1 uM after 30 mins in presence of NADPH; format: ADME; details: read-out: CLH
Cytochrome P450 3A4 = Cytochrome P450 3A4 (Homo sapiens, UniProt P08684); test: Inhibition of CYP3A4 (unknown origin); format: ADME
[2] = Fraction unbound in Sprague-Dawley rat plasma; format: ADME, cell-free
[3] = Volume of distribution at steady state in Sprague-Dawley rat at 2 mg/kg, iv; format: ADME, organism-based; parameters: dose 2 mg/kg, route intravenous; details: in vivo, read-out: Vdss
Cytochrome P450 2D6 = Cytochrome P450 2D6 (Homo sapiens, UniProt P10635); test: Inhibition of CYP2D6 (unknown origin); format: ADME
Chain of Cytochrome P450 2D6 (P10635 whole entry): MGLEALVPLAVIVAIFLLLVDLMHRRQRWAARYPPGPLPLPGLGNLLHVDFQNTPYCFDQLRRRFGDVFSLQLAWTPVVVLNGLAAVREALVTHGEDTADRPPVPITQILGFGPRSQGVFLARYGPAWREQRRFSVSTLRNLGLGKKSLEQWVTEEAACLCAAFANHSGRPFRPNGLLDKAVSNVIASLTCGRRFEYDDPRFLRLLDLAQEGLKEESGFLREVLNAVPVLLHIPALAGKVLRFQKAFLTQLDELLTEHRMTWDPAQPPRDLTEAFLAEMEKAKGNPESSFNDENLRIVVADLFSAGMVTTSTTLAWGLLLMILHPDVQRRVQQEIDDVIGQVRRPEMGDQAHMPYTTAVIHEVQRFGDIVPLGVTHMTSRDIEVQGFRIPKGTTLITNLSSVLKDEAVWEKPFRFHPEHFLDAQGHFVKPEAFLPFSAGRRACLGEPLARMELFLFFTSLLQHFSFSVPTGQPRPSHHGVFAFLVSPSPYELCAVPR

[4] = Oral bioavailability in Sprague-Dawley rat at 10 mg/kg; format: ADME, organism-based; details: in vivo
[5] = Intrinsic clearance in human liver microsomes at 1 uM after 30 mins in presence of NADPH; format: ADME; details: read-out: CLH
[6] = AUC in Sprague-Dawley rat at 10 mg/kg, po; format: ADME, organism-based; parameters: dose 10 mg/kg, route oral; details: plasma
[7] = Clearance in Sprague-Dawley rat at 2 mg/kg, iv; format: ADME, organism-based; parameters: dose 2 mg/kg, route intravenous; details: in vivo
[8] = Mean residence time in Sprague-Dawley rat at 2 mg/kg, iv; format: ADME, organism-based; parameters: dose 2 mg/kg, route intravenous; details: in vivo
Hexokinase-4 = target: T1, Hexokinase-4 (Homo sapiens, UniProt P35557); test: Inhibition of fluorescein-labeled human GK interaction with biotin-labeled human GKRP compound incubated for 20 mins prior to addition of fluorescein-labeled GK measured after 2 to 4 hrs by AlphaScreen assay
T1 sequence (P35557 whole entry): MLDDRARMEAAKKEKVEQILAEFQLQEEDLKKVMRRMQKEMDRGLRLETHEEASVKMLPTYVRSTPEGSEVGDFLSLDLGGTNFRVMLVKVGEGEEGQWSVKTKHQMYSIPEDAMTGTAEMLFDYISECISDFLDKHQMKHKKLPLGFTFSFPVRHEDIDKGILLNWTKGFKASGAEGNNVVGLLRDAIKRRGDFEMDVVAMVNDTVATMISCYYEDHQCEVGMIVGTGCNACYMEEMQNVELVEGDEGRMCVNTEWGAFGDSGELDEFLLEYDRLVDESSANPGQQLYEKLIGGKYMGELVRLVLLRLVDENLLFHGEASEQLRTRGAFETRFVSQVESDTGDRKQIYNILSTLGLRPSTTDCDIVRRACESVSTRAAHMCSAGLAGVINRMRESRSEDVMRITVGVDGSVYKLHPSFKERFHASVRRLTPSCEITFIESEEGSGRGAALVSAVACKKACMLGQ

Mus musculus = test: Antidiabetic activity in insulin-resistant db/db mouse assessed as reduction of fed blood glucose level at 10 to 100 mg/kg, po measured at 6 hrs relative to vehicle-treated control; format: functional; parameters: scale not given: the % may be the effect or the level left; details: dose mg/kg 10-100

Chain of Cytochrome P450 3A4 (P08684 whole entry): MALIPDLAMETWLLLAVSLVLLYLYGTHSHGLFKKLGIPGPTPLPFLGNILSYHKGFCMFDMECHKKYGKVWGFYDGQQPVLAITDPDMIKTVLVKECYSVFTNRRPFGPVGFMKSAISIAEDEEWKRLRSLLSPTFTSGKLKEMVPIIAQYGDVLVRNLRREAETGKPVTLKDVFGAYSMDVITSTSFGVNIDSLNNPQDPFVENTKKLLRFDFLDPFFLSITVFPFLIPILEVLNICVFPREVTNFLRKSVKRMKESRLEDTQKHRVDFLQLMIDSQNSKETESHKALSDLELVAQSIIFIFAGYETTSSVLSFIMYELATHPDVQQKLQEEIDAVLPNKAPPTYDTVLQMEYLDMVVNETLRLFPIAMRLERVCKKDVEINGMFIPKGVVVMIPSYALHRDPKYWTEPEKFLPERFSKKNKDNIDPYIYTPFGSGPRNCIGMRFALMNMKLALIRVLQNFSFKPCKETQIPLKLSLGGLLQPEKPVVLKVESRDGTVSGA

SMILES: Cn1cc(-c2cc(C(O)(C(F)(F)F)C(F)(F)F)cnc2N2CCN(S(=O)(=O)c3ccc(N)nc3)CC2)cn1
- microsomal CLint at 1 µM [1]: 44 µL/min/mg
- IC50 (Cytochrome P450 3A4): 27 µM
- fraction unbound [2]: 0.011
- Vd [3]: 2.57 L/kg
- IC50 (Cytochrome P450 2D6): 18 µM
- bioavailability [4]: 30%
- microsomal CLint at 1 µM [5]: 19 µL/min/mg
- AUC [6]: 2.8 µM·h
- clearance [7]: 33.3 mL/min/kg
- MRT [8]: 1.34 h
- IC50 (Hexokinase-4): 0.001 µM

SMILES: Nc1ccc(S(=O)(=O)N2CCN(c3ncc(C(O)(C(F)(F)F)C(F)(F)F)cc3-c3cccnc3)CC2)cn1
- microsomal CLint at 1 µM [1]: 20 µL/min/mg
- IC50 (Cytochrome P450 3A4): 27 µM
- fraction unbound [2]: 0.021
- Vd [3]: 3.36 L/kg
- IC50 (Cytochrome P450 2D6): 27 µM
- bioavailability [4]: 43%
- microsomal CLint at 1 µM [5]: 17 µL/min/mg
- AUC [6]: 4.74 µM·h
- Activity (Mus musculus): 25%
- clearance [7]: 25 mL/min/kg
- MRT [8]: 2.18 h
- IC50 (Hexokinase-4): 0.005 µM
